Tests used:
[1] = system: Helicobacter pylori-infected people; assay: Human test, changes in digestive system symptoms; format: in vivo; conditions: 8 weeks
Description: In order to verify the anti-Helicobacter pylori effect of beta-caryophyllene, beta-caryophyllene was administered to 16 semi-healthy people (Helicobacter pylori-infected people) complaining of gastrointestinal disorders, at a dose of 126 mg/day once a day for 8 weeks before meals, and changes in digestive system symptoms (nausea, epigastric pain, heartburn, acid regurgitation, and indigestion) were evaluated, and the results are shown in Table 5.

[2] = system: CagA, VacA and SecA proteins; assay: Western blotting of H. pylori toxins CagA, VacA and SecA; format: cell-based, Helicobacter pylori; conditions: 125, 250 and 500 μg/ml, 3 days culture
Description: To evaluate the effect of beta-caryophyllene treatment on the production of toxins secreted by Helicobacter pylori, Helicobacter pylori was treated with beta-caryophyllene, and then the amounts of CagA, VacA and SecA proteins were analyzed by Western blotting.
For Western blotting, samples obtained by treating Helicobacter pylori with beta-caryophyllene at concentrations of 0, 125, 250 and 500 μg/ml and culturing the treated Helicobacter pylori for 3 days were lysed with RIPA lysis buffer (Millipore) on ice for 30 minutes and then centrifuged. The supernatants were collected, and then proteins therein were quantified using a spectrophotometer (Infinite M200, TECAN).
Equal amounts of protein samples were loaded and electrophoresed on 10% SDS polyacrylamide gel, and the protein fractions were transferred to nitrocellulose membranes (PALL) and reacted with CagA (mouse monoclonal IgG antibody, Santa Cruz), VacA (rabbit polyclonal IgG antibody, Santa Cruz), SecA (rabbit polyclonal IgG antibody, produced by the applicant) and anti-Helicobacter pylori (rabbit polyclonal IgG antibody, produced by the applicant) antibodies at 4° C. for 16 hours. After completion of the primary antibody reaction, secondary blocking (1 hr/RT) was performed. As secondary antibodies, donkey anti-rabbit IgG-HRP, donkey anti-mouse IgG-HRP or donkey anti-goat IgG-HRP (Santa Cruz) was used depending on the primary antibody. The reaction products were treated by an enhanced chemiluminescence kit (Thermo), and then analyzed by Chemidoc (Fusion solo, Vilber Lourmat).

H. pylori [3] = assay: Gastric rapid urease test (CLO test), therapeutic rate; format: in vivo, C57BL/6 mouse; conditions: oral gavage, 28 days, control G3 30%
Description: (§1) In order to compare the Helicobacter pylori eradiation effect between beta-caryophyllene and the antibiotics that are used for treatment of Helicobacter pylori infection, an animal test was performed using the test groups and doses shown in Table 1 below.
(§2) Each test substance was suspended in an excipient according to the dose and administered to each mouse once a day at the same time every day for a total of 28 days in a dose of 5 ml per kg mouse (C57BL/6 mouse) by oral gavage method.
The rapid urease test is based on the principle according to which, when H. pylori is present in gastric mucosa, the bacteria produce ammonia by secreting urease while proliferating in a medium containing a test reagent and a pH indicator, and a change in the color of the pH indicator is examined.
The gastric mucosal tissue extracted on the day of the autopsy was collected aseptically and tested using a Campylobacter-like organism (CLO) test reagent. The tissue was incubated in an incubator at 37° C. for 2 hours, the resulting color changed from yellow to red, the sample was judged as positive. The number of mice determined to be positive was calculated as a percentage, and the therapeutic rate for H. pylori eradication by sample treatment was obtained using the following equation, and the results are shown in Table 2 below.
Therapeutic rate (%)=(number of samples−number of positive samples)/number of samples×100

[4] = system: cagA, vacA and secA genes; assay: RT-PCR of cagA, vacA and secA gene expression; format: cell-based, Helicobacter pylori; conditions: 31.25, 62.5, 125, 250 and 500 μg/ml
Description: In addition, in order to examine changes in expression of cagA, vacA and secA genes, H. pylori was treated with beta-caryophyllene at concentrations of 31.25, 62.5, 125, 250 and 500 μg/ml, and then RT-PCR was performed.

urease A and urease B = assay: Expression of urease protein in H. pylori; format: cell-based, Helicobacter pylori; conditions: 125, 250 and 500 μg/ml, all treatment concentrations
Description: In order to evaluate the effect of beta-caryophyllene treatment on the inhibition of H. pylori urease, H. pylori was treated with beta-caryophyllene at concentrations of 125, 250 and 500 μg/ml, and changes in the expression of urease protein were analyzed, and the results are shown in FIG. 7.

Helicobacter pylori = assay: RT-PCR of H. pylori-specific 16S rRNA in stomach tissue of infected animals; format: in vivo, Mongolian gerbils; conditions: groups treated with 100 mg/kg and 500 mg/kg
Description: Mongolian gerbils were infected with a Helicobacter pylori strain (ATCC 49503) and then subjected to two weeks of acclimatization. To this end, the animals were fasted for 12 hours before and after inoculation with the Helicobacter pylori strain. 500 μl (1×10^9 CFU) of a bacterial suspension was prepared by suspending H. pylori in sterile physiological saline to a concentration of 2×10^9 CFU/ml and introduced directly into the stomach by using a feeding needle. For stable infection, the H. pylori strain was dispensed three times at 48 hour-intervals.
Beta-caryophyllene was administered directly into the gastrointestinal at doses of 100 mg/kg and 500 mg/kg for the low and high dose groups, respectively, for 12 weeks after two weeks after infection with H. pylori. The same amount of corn oil as the beta-caryophyllene was administered to each of the non-infected group and the infected group.
To confirm H. pylori infection, the stomach tissues of the four animal groups prepared in the H. pylori-infected animal preparation process shown in Experimental Example 2 were subjected to RT-PCR in order to examine whether H. pylori-specific 16S rRNA would be detected.

H. pylori [5] = assay: CLO score after the CLO test; format: in vivo, C57BL/6 mouse; conditions: for CLO score: 28 days, score 0-3, control G3 2.10
Description: as §1, §2
The mean and standard deviation of each group were calculated, and the difference between the values of the groups was compared, and the results are shown in Table 3 below.

[6] = 126 mg/day, after vs before intake

Compound: C=C1CC/C=C(\C)CC[C@@H]2[C@@H]1CC2(C)C [beta-caryophyllene]
- Nausea, After intake ([1]; 126 mg/day once a day, 16 people, before intake 0.19): 0.06
- Acid regurgitation, After intake ([1]; 126 mg/day once a day, 16 people, before intake 0.25): 0.06
- Indigestion, After intake ([1]; 126 mg/day once a day, 16 people, before intake 0.56): 0.13
- Heartburn, After intake ([1]; 126 mg/day once a day, 16 people, before intake 0.88): 0.38
- Epigastric pain, After intake ([1]; 126 mg/day once a day, 16 people, before intake 1.31): 0.44
- Acid regurgitation, Improvement rate (%) [1, 6]: 76%
- Epigastric pain, Improvement rate (%) [1, 6]: 66.4%
- Heartburn, Improvement rate (%) [1, 6]: 56.8%
- Indigestion, Improvement rate (%) [1, 6]: 76.8%
- Nausea, Improvement rate (%) [1, 6]: 68.4%
- improvement of Helicobacter pylori-induced gastrointestinal disorders ([1]; 126 mg/day, all five symptoms of Table 5): ≥ 56%
- secretion of CagA (Western blot) [2]: inhibited
- secretion of SecA (Western blot) [2]: inhibited
- secretion of VacA (Western blot) [2]: inhibited
- Therapeutic % (H. pylori [3]; G6: 100 mg/kg/day): 60%
- Therapeutic % (H. pylori [3]; G7: 200 mg/kg/day): 56%
- Therapeutic % (H. pylori [3]; G8: 500 mg/kg/day): 80%
- transcription of other genes, including UDP-galactose 4-epimerase (control) [4]: did not affect
- transcription of toxin protein gene cagA [4]: tended to be inhibited
- transcription of toxin protein gene vacA [4]: tended to be inhibited
- expression of urease A (Urease α) (urease A and urease B): significantly decreased
- expression of urease B (Urease β) (urease A and urease B): significantly decreased
- Helicobacter pylori eradication rate (Helicobacter pylori; first value, week 6 (or 100 mg/kg; wording ambiguous)): 90.4%
- Helicobacter pylori eradication rate (Helicobacter pylori; second value, week 12 (or 500 mg/kg; wording ambiguous)): 95.8%
- CLO score (H. pylori [5]; G6: 100 mg/kg/day): 1.2
- decrease of CLO score compared to G3 (H. pylori [5]; G6: 100 mg/kg/day, not statistically significant): 42.9%
- CLO score (H. pylori [5]; G7: 200 mg/kg/day): 1.11
- decrease of CLO score compared to G3 (H. pylori [5]; G7: 200 mg/kg/day, not statistically significant): 47.1%
- CLO score (H. pylori [5]; G8: 500 mg/kg/day): 0.5
- decrease of CLO score compared to G3 (H. pylori [5]; G8: 500 mg/kg/day, statistically significant): 76.2%
